According to US20140235576A1, “PYRROLIDINE-2-CARBOXYLIC ACID DERIVATIVES AS IGLUR ANTAGONISTS” (Kobenhavns Universitet, priority 2013, published 2014):
Like-named read-outs stand apart in the source and are kept apart here. No end group written: not given here.

How the values were obtained:
[1] = biological target: NMDA receptors; conditions: native iGluR; values taken from reference 49; cited from earlier work
[2] = biological target: KA receptors; conditions: native iGluR; values taken from reference 49; cited from earlier work
[3] = biological target: AMPA receptors; conditions: native iGluR; values taken from reference 49; cited from earlier work
[4] = biological target: AMPA receptors; assay: Radioligand binding at native AMPA receptors (rat synaptosomes); conditions: native iGluRs
Description: (§1) Analog 2 was characterized pharmacologically in radio ligand binding assays at native iGluRs (rat synaptosomes) and cloned homomeric subtypes, GluK1-3 (Table 1).

[5] = biological target: T1, GluK3 (Rattus norvegicus, UniProt P42264); assay: Radioligand binding at cloned homomeric GluK3; conditions: cloned homomeric subtype
T1 construct: expressed in transfected cells
Description: as §1

[6] = biological target: KA receptors; assay: Radioligand binding at native KA receptors (rat synaptosomes); conditions: native iGluRs
Description: as §1

[7] = biological target: GluK1 (UniProt P22756); assay: Radioligand binding at cloned homomeric GluK1; conditions: cloned homomeric subtype
Description: as §1

[8] = biological target: GluK2 (UniProt P42260); assay: Radioligand binding at cloned homomeric GluK2; conditions: cloned homomeric subtype
Description: as §1

[9] = biological target: NMDA receptors; assay: Radioligand binding at native NMDA receptors (rat synaptosomes); conditions: native iGluRs
Description: as §1

[10] = system: GluN1/GluN2A-D; assay: Functional assay for subtypes GluN1/GluN2A-D; type: biochemical
[11] = biological target: GluN1/GluN2B (Homo sapiens, UniProt Q13224); conditions: cited from earlier work
Chain of GluN1/GluN2B (Q13224 27-1484, species assumed, other chains not shown): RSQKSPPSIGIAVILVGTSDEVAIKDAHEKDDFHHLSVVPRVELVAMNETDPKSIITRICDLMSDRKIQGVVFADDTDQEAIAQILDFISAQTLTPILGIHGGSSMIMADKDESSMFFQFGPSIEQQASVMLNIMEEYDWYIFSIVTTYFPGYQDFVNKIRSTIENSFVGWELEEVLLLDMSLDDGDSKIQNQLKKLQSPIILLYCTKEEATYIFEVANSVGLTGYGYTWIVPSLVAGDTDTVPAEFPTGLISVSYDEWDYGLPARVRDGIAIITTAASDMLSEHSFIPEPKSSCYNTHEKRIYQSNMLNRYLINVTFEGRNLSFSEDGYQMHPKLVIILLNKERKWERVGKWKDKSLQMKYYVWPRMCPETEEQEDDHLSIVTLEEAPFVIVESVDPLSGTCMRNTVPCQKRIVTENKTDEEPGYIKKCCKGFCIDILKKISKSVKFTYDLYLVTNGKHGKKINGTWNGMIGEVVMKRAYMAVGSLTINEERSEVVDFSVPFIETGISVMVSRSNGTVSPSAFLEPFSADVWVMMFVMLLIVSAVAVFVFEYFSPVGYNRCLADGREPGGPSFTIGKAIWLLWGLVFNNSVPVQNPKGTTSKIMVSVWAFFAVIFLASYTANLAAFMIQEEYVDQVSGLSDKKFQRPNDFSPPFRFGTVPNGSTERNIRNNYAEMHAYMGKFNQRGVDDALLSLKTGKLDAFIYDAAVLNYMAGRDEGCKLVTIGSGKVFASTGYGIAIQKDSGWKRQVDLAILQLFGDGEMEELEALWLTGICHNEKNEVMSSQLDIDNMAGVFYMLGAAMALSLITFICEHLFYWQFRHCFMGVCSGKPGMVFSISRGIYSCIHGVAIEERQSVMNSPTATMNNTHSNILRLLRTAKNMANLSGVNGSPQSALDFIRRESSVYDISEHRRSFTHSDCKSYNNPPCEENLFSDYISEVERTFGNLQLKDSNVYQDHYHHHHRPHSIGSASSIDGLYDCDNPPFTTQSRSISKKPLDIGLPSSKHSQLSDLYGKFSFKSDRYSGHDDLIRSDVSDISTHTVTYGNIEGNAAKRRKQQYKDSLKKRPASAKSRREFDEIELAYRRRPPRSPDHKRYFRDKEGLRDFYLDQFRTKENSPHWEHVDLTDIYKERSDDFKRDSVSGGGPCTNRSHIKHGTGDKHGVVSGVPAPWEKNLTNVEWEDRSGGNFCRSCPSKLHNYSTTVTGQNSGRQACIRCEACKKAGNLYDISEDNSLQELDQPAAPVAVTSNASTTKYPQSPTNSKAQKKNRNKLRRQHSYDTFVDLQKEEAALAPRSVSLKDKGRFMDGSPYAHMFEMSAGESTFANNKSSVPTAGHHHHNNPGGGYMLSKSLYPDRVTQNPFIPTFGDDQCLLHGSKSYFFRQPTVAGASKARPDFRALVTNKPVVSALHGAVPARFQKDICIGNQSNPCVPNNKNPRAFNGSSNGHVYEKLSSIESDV

T1 sequence (P42264 32-919): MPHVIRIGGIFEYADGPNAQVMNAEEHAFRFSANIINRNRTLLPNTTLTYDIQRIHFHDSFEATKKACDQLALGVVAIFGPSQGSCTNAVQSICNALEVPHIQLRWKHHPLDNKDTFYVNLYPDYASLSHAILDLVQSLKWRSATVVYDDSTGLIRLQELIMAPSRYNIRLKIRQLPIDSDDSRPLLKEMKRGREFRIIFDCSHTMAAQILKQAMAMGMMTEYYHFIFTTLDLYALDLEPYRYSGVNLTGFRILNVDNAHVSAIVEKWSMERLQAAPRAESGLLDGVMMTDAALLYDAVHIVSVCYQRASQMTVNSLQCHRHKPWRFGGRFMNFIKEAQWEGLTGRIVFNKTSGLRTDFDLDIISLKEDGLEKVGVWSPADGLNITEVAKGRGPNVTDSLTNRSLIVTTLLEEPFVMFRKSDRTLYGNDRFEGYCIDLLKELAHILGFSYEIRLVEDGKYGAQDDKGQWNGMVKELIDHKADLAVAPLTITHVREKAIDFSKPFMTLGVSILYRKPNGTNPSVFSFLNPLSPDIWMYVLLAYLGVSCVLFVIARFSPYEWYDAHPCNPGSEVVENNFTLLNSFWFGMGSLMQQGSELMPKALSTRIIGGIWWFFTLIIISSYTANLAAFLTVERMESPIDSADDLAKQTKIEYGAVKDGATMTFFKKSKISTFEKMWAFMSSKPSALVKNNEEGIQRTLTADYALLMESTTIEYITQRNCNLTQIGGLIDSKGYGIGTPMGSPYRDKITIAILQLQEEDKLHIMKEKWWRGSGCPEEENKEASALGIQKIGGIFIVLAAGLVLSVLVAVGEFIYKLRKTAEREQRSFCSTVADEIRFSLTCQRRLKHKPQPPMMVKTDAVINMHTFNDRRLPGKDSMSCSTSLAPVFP

O=C(O)c1cccc([C@H]2CCN[C@@H]2C(=O)O)c1 [Analog 1]
Ki [1]: 6 µM | KA IC50 [2]: 22 µM | IC50 [3]: 51 µM

O=C(O)c1ccc([C@H]2CCN[C@@H]2C(=O)O)cc1 [Analog 2, (2S,3R)-3-(4-Carboxyphenyl)pyrrolidine-2-carboxylic Acid]
IC50 [4]: > 100 µM | Ki [5]: > 100 µM | KA IC50 [6]: >100 µM | Ki [7]: > 100 µM | Ki [8]: > 100 µM | Ki [9]: 8.5 µM | NMDA, value in square brackets under Ki (pKi ± spread) [9]: [5.07 ± 0.04] | IC50 ([9]; read-out: affinity for the NMDA receptors (IC50)): 8.5 µM | functional character at GluN1/GluN2A-D [10]: antagonist

Conantokin G (GEEELQENQELIREKSN; ends and bridges not checked; UniProt P07231 81-97, looked up)
preference for GluN1/GluN2B over GluN1/GluN2C and GluN1/2D [11]: 10 fold | selectivity for GluN1/GluN2B over GluN1GluN2A [11]: 100 fold
